Test results: patent US20230355815A1, “ACTIVE DELIVERY OF RADIOTRACERS ACROSS THE BLOOD BRAIN BARRIER” (The Board of Trustees of the Leland Stanford Junior …, priority 2021, published 2023)

What was measured:
TSPO = biological target: T1, TSPO (Mus musculus, UniProt P50637); test: TSPO-PET/CT imaging of EAE mice; type: in vivo
T1 construct: endogenous in cells; host or cells: tissues of living C57BL/6 mice (EAE and naive)
Protocol: Mice were categorized as pre-symptomatic (pre; score 0, >1 g weight loss in 48 h), low (score 0.5-2), or high EAE (score 2.5-4.5). Anti-TREM1 monoclonal antibody (mAb) was DOTA-conjugated and radiolabeled with ^64Cu. PET/CT imaging was performed 20 hours post-injection of [^64Cu]TREM1-mAb (95-120 μCi, >99% RCP) or 50-60 min after TSPO-targeted radiotracer [^18F]GE-180 (231-269 μCi, >99% RCP). Following PET, mice were perfused to remove unbound intravascular tracer and radioactivity in central nervous system (CNS) tissues was measured using a gamma counter.
TREMl-PET is a more sensitive tool for detecting neuroinflammation in EAE compared to TSPO-PET Next, we examined the sensitivity of TREMl-PET compared to the gold standard approach for assessing neuroinflammation in vivo for both preclinical and clinical research—TSPO-PET. Naive and EAE mice were injected with [^18F]GE-180. a highly sensitive and selective tracer for TSPO in rodents (26), and PET images were acquired 50-60 min following tracer administration. […] Specifically, peritoneum adhesions encompassing the spleen. mesentery, and stomach, as well as abdominal granulomatous inflammation, have been reported in mice injected with CFA (27). […]
[^18F]GE-180 was synthesized as previously described (46). Chemical and radiochemical purity were determined by reverse-phase analytical HPLC (Phenomenex Luna column, 150×4.6 mm. particle size 3 μm. pore size 100 A) using a 11 min 50-95% gradient (0.1 mg/mL ascorbic acid in H2O:MeCN. monitored by gamma detection and UV at 254 and 280 nm). […]
PET images were analyzed using Vivoquant software (version 4.0. inviCRO) and visualized using Inveon Research Workspace (IRW, version 4.0: Siemens). Brain uptake was quantified as previously described (47). lo brief, a 3-dimensional mouse brain atlas was utilized to obtain tracer uptake values in a priori regions of interest (whole brain, pons. medulla. and cerebellum). Cervical/thoracic and lumbar spinal cord quantification was obtained via segmentation and exclusion of the vertebral column. […]

TREM1 = settings: animal models of sepsis; cited from earlier work
TREM1 signaling = test: LP17 treatment study in EAE mice; type: in vivo, mouse; settings: vs saline
Protocol: Spinal cords were further analyzed via high-resolution autoradiography. Flow cytometry was performed on CNS tissues using TREM1, CD45, CD11b, CD11c, CD3, and Ly-6G to delineate immune cell populations. Quantitative PCR was performed to assess changes in mRNA expression. LP17, a decoy receptor peptide known to attenuate TREM1 signaling, was administered daily to pre EAE mice (10, 15 mg/kg, or saline i.p) for 10 days.
Blocking TREMi signaling genetically and pharmacologically attenuates EAE severity. To explore the biological relevance of TREMl in EAE development and progression, we assessed disease trajectory in KO EAE compared to WT EAE animals. While 83% of WT mice developed EAE, only 40% of Trem/KO mice developed symptoms during the same timeframe. […] Next, to determine if blocking TREM I signaling during disease development could have therapeutic effects, we treated WT EAE animals with LP 17 (10 or 15 mg/kg)—a 17 mer peptide decoy receptor, previously shown to attenuate TREMi signaling (25, 38)—and compared disease progression to vehicle (saline) treated mice.
LPI 7 peptide (sequence: […] […]) was synthesized by the Protein and Nucleic Acid Core Facility at Stanford University as previously described (J 9). WT EAE mice were induced with EAE and monitored daily as previously outlined. […] LP 17 or saline was administered daily (i.p) for 10 days and disease level was recorded.

T1 sequence (P50637 whole entry): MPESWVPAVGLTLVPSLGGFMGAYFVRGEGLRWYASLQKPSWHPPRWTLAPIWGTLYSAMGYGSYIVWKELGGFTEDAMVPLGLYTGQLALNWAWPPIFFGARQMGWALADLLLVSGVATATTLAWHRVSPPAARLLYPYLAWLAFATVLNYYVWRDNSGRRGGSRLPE

Compound | TSPO-PET signal in the brain (TSPO; EAE vs naive mice) | TSPO-PET uptake in cervical/thoracic and lumbar spinal cords (TSPO; EAE vs naive mice, 50-60 min post-injection) | CNS tracer binding (TSPO; control mice (CFA emulsion without MOG) vs naive untouched mice) | pro-inflammatory mediators and survival (TREM1) | EAE disease severity (TREM1 signaling; 10 mg/kg daily i.p. for 10 days from pre EAE stage) | EAE disease severity (TREM1 signaling; 15 mg/kg daily i.p. for 10 days from pre EAE stage)
CCN(CC)C(=O)[C@H]1CCCc2c1c1c(OC)cccc1n2CC[18F] [[^18F]GE-180] | no significant differences | significantly reduced uptake | decreased | – | – | –
CC(C)[C@]12O[C@H]1[C@@H]1O[C@]13[C@]1(O[C@H]1C[C@H]1C4=C(CC[C@@]13C)C(=O)OC4)[C@@H]2O [triptolide] | – | – | – | reduce pro-inflammatory mediators and increase survival | – | –
LP17: 17 mer peptide decoy receptor attenuating TREM1 signaling; sequence LQVTDSGL YRCVIYHPP (LQVTDSGLYRCVIYHPP) | – | – | – | reduce pro-inflammatory mediators and increase survival | not | Significant attenuation of disease severity
